Results reported in the NIST ThermoML archive (doi:10.1021/je040006u).
± gives the expanded uncertainty stated by the source.

Experiment: xn = mol fraction of the nth substance listed
Details: 101.3 kPa, Liquid, Pycnometric method

CCCNCCC [dipropylamine] + COCCO
mass density [kg/m3]
Details | 291.15 K | 293.15 K | 298.15 K | 303.15 K | 308.15 K
x2 = 0 | 738.47 ± 2 | 737.2 ± 2 | 732.56 ± 2 | 728.2 ± 2 | 723.64 ± 2
x2 = 0.0501 | 746.83 ± 2 | 745.26 ± 2.1 | 740.37 ± 2.1 | 735.86 ± 2.1 | 731.07 ± 2
x2 = 0.1 | 754.98 ± 2.1 | 753.42 ± 2.1 | 748.52 ± 2.1 | 743.91 ± 2.1 | 739.04 ± 2.1
x2 = 0.1502 | 763.4 ± 2.1 | 761.9 ± 2.1 | 756.9 ± 2.1 | 752.27 ± 2.1 | 747.36 ± 2.1
x2 = 0.2001 | 772.06 ± 2.1 | 770.51 ± 2.1 | 765.5 ± 2.1 | 760.85 ± 2.1 | 755.94 ± 2.1
x2 = 0.2508 | 781.14 ± 2.1 | 779.61 ± 2.2 | 774.59 ± 2.2 | 769.92 ± 2.1 | 764.98 ± 2.1
x2 = 0.2999 | 790.26 ± 2.2 | 788.66 ± 2.2 | 783.68 ± 2.2 | 778.97 ± 2.2 | 774.07 ± 2.2
x2 = 0.3502 | 799.92 ± 2.2 | 798.35 ± 2.2 | 793.28 ± 2.2 | 788.57 ± 2.2 | 783.65 ± 2.2
x2 = 0.4 | 809.92 ± 2.2 | 808.21 ± 2.2 | 803.2 ± 2.2 | 798.45 ± 2.2 | 793.51 ± 2.2
x2 = 0.45 | 820.34 ± 2.3 | 818.67 ± 2.3 | 813.61 ± 2.3 | 808.82 ± 2.2 | 803.85 ± 2.2
x2 = 0.4999 | 831.06 ± 2.3 | 829.4 ± 2.3 | 824.3 ± 2.3 | 819.53 ± 2.3 | 814.5 ± 2.3
x2 = 0.5507 | 842.47 ± 2.3 | 840.75 ± 2.3 | 835.6 ± 2.3 | 830.8 ± 2.3 | 825.78 ± 2.3
x2 = 0.5982 | 853.45 ± 2.4 | 851.69 ± 2.4 | 846.6 ± 2.4 | 841.77 ± 2.3 | 836.69 ± 2.3
x2 = 0.6502 | 866.02 ± 2.4 | 864.26 ± 2.4 | 859.11 ± 2.4 | 854.24 ± 2.4 | 849.17 ± 2.4
x2 = 0.6999 | 878.41 ± 2.4 | 876.59 ± 2.4 | 871.47 ± 2.4 | 866.58 ± 2.4 | 861.5 ± 2.4
x2 = 0.7489 | 891.21 ± 2.5 | 889.34 ± 2.5 | 884.21 ± 2.5 | 879.3 ± 2.4 | 874.18 ± 2.4
x2 = 0.8015 | 905.66 ± 2.5 | 903.7 ± 2.5 | 898.54 ± 2.5 | 893.64 ± 2.5 | 888.51 ± 2.5
x2 = 0.8496 | 919.22 ± 2.6 | 917.32 ± 2.5 | 912.15 ± 2.5 | 907.23 ± 2.5 | 902.13 ± 2.5
x2 = 0.8997 | 934.42 ± 2.6 | 932.35 ± 2.6 | 927.21 ± 2.6 | 922.3 ± 2.5 | 917.11 ± 2.5
x2 = 0.9497 | 950.19 ± 2.6 | 948.22 ± 2.6 | 943.1 ± 2.6 | 938.3 ± 2.6 | 933.24 ± 2.6
